Data published in the supplement of paper PMC10307832.

How the values were obtained:
Experiment in all cases: relative viability (nuclei count vs DMSO), 5 days (fraction); higher = more cells survive
SGI-1776 + Palbociclib = compound: CN1CCC(CNc2ccc3ncc(-c4cccc(OC(F)(F)F)c4)n3n2)CC1 [SGI-1776] + CC(=O)c1c(C)c2cnc(Nc3ccc(N4CCNCC4)cn3)nc2n(C2CCCC2)c1=O [Palbociclib] (partner 0.5 µM)
Procedure, shortened: (§1)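 One day after seeding in 1536-well plates, lung cancer cell lines were dosed by pin tool. Dosing was either single-drug or a fixed anchor-drug dose plus five library-drug doses (not always all listed) in √10 steps. After 5 days, nuclei were stained in one fix-and-stain step and counted on 4× images, and relative viability is the nuclei count of treated wells over that of vehicle wells, given as the median of duplicate plates.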

[1] = compound: C1COCCN1C2=NC(=NC3=C2OC4=C3C=CC=N4)C5=CC(=CC=C5)NC(=O)C6=CN=C(C=C6)N + C[C@@H](Oc1cc(-c2cnn(C3CCNCC3)c2)cnc1N)c1c(Cl)ccc(F)c1Cl [Crizotinib] (partner 1 µM)
Procedure, shortened: as §1

Entinostat + Vorinostat = compound: Nc1ccccc1NC(=O)c1ccc(CNC(=O)OCc2cccnc2)cc1 [Entinostat] + O=C(CCCCCCC(=O)Nc1ccccc1)NO [Vorinostat] (partner 1 µM)
Procedure, shortened: as §1

In the case of NCI-H2023, the relative viability (SGI-1776 + Palbociclib; first compound 0.08 µM) is reported as 0.38, the relative viability (SGI-1776 + Palbociclib; first compound 0.8 µM) is reported as 0.396 and the relative viability (SGI-1776 + Palbociclib; first compound 2.53 µM) is reported as 0.354. It also gave a relative viability (SGI-1776 + Palbociclib; first compound 8 µM) of 0.266, a relative viability ([1]; first compound 0.02 µM) of 0.669 and a relative viability ([1]; first compound 0.06325 µM) of 0.711. The relative viability ([1]; first compound 0.2 µM) was 0.49, the relative viability ([1]; first compound 0.6325 µM) was 0.56 and the relative viability ([1]; first compound 2 µM) was 0.257. The relative viability (Entinostat + Vorinostat; first compound 0.02 µM) was 0.541, the relative viability (Entinostat + Vorinostat; first compound 0.06325 µM) was 0.536 and the relative viability (Entinostat + Vorinostat; first compound 0.2 µM) was 0.318. It also gave a relative viability (Entinostat + Vorinostat; first compound 0.6325 µM) of 0.118 and a relative viability (Entinostat + Vorinostat; first compound 2 µM) of 0.0713.

HCC-44 showed a relative viability (SGI-1776 + Palbociclib; first compound 0.08 µM) of 0.976, a relative viability (SGI-1776 + Palbociclib; first compound 0.8 µM) of 0.995 and a relative viability (SGI-1776 + Palbociclib; first compound 2.53 µM) of 0.953. For the same cell line, the relative viability (SGI-1776 + Palbociclib; first compound 8 µM) was 0.919, the relative viability ([1]; first compound 0.02 µM) was 0.879 and the relative viability ([1]; first compound 0.06325 µM) was 0.927. It also gave a relative viability ([1]; first compound 0.2 µM) of 0.835, a relative viability ([1]; first compound 0.6325 µM) of 0.887 and a relative viability ([1]; first compound 2 µM) of 0.624. It also gave a relative viability (Entinostat + Vorinostat; first compound 0.02 µM) of 1.08, a relative viability (Entinostat + Vorinostat; first compound 0.06325 µM) of 0.976 and a relative viability (Entinostat + Vorinostat; first compound 0.2 µM) of 0.938. It also gave a relative viability (Entinostat + Vorinostat; first compound 0.6325 µM) of 0.879 and a relative viability (Entinostat + Vorinostat; first compound 2 µM) of 0.653.

In the case of ChaGo-K-1, the relative viability (SGI-1776 + Palbociclib; first compound 0.08 µM) is reported as 0.911, the relative viability (SGI-1776 + Palbociclib; first compound 0.8 µM) is reported as 0.974 and the relative viability (SGI-1776 + Palbociclib; first compound 2.53 µM) is reported as 0.967. It also gave a relative viability (SGI-1776 + Palbociclib; first compound 8 µM) of 0.911, a relative viability ([1]; first compound 0.02 µM) of 1.2 and a relative viability ([1]; first compound 0.06325 µM) of 1.14. The relative viability ([1]; first compound 0.2 µM) was 1.01, the relative viability ([1]; first compound 0.6325 µM) was 1.26 and the relative viability ([1]; first compound 2 µM) was 0.717. It also gave a relative viability (Entinostat + Vorinostat; first compound 0.02 µM) of 0.765, a relative viability (Entinostat + Vorinostat; first compound 0.06325 µM) of 0.763 and a relative viability (Entinostat + Vorinostat; first compound 0.2 µM) of 0.768. The relative viability (Entinostat + Vorinostat; first compound 0.6325 µM) was 0.626 and the relative viability (Entinostat + Vorinostat; first compound 2 µM) was 0.464.

COR-L23 showed a relative viability (SGI-1776 + Palbociclib; first compound 0.08 µM) of 0.282, a relative viability (SGI-1776 + Palbociclib; first compound 0.8 µM) of 0.309 and a relative viability (SGI-1776 + Palbociclib; first compound 2.53 µM) of 0.32. For the same cell line, the relative viability (SGI-1776 + Palbociclib; first compound 8 µM) was 0.247, the relative viability ([1]; first compound 0.02 µM) was 0.68 and the relative viability ([1]; first compound 0.06325 µM) was 0.748. For the same cell line, the relative viability ([1]; first compound 0.2 µM) was 0.716, the relative viability ([1]; first compound 0.6325 µM) was 0.809 and the relative viability ([1]; first compound 2 µM) was 0.43. For the same cell line, the relative viability (Entinostat + Vorinostat; first compound 0.02 µM) was 0.368, the relative viability (Entinostat + Vorinostat; first compound 0.06325 µM) was 0.503 and the relative viability (Entinostat + Vorinostat; first compound 0.2 µM) was 0.423. The relative viability (Entinostat + Vorinostat; first compound 0.6325 µM) was 0.208 and the relative viability (Entinostat + Vorinostat; first compound 2 µM) was 0.238.

In the case of EMC-BAC-2, the relative viability (SGI-1776 + Palbociclib; first compound 0.08 µM) is reported as 0.537, the relative viability (SGI-1776 + Palbociclib; first compound 0.8 µM) is reported as 0.52 and the relative viability (SGI-1776 + Palbociclib; first compound 2.53 µM) is reported as 0.518. The relative viability (SGI-1776 + Palbociclib; first compound 8 µM) was 0.514, the relative viability ([1]; first compound 0.02 µM) was 0.8 and the relative viability ([1]; first compound 0.06325 µM) was 0.792. The relative viability ([1]; first compound 0.2 µM) was 0.76, the relative viability ([1]; first compound 0.6325 µM) was 0.805 and the relative viability ([1]; first compound 2 µM) was 0.598. It also gave a relative viability (Entinostat + Vorinostat; first compound 0.02 µM) of 0.969, a relative viability (Entinostat + Vorinostat; first compound 0.06325 µM) of 0.433 and a relative viability (Entinostat + Vorinostat; first compound 0.2 µM) of 0.6. For the same cell line, the relative viability (Entinostat + Vorinostat; first compound 0.6325 µM) was 0.331 and the relative viability (Entinostat + Vorinostat; first compound 2 µM) was 0.218.

For LCLC-97TM1, the relative viability (SGI-1776 + Palbociclib; first compound 0.08 µM) was 0.252, the relative viability (SGI-1776 + Palbociclib; first compound 0.8 µM) was 0.231 and the relative viability (SGI-1776 + Palbociclib; first compound 2.53 µM) was 0.198. The relative viability (SGI-1776 + Palbociclib; first compound 8 µM) was 0.228, the relative viability ([1]; first compound 0.06325 µM) was 0.407 and the relative viability ([1]; first compound 0.2 µM) was 0.321. It also gave a relative viability ([1]; first compound 0.6325 µM) of 0.341, a relative viability ([1]; first compound 2 µM) of 0.308 and a relative viability (Entinostat + Vorinostat; first compound 0.02 µM) of 0.65. For the same cell line, the relative viability (Entinostat + Vorinostat; first compound 0.06325 µM) was 0.742, the relative viability (Entinostat + Vorinostat; first compound 0.2 µM) was 0.588 and the relative viability (Entinostat + Vorinostat; first compound 0.6325 µM) was 0.398. The relative viability (Entinostat + Vorinostat; first compound 2 µM) was 0.161.

LK-2 was tested, and the relative viability (SGI-1776 + Palbociclib; first compound 0.08 µM) was 0.513, the relative viability (SGI-1776 + Palbociclib; first compound 0.8 µM) was 0.735 and the relative viability (SGI-1776 + Palbociclib; first compound 2.53 µM) was 0.647. The relative viability (SGI-1776 + Palbociclib; first compound 8 µM) was 0.534, the relative viability ([1]; first compound 0.02 µM) was 0.21 and the relative viability ([1]; first compound 0.06325 µM) was 0.247. The relative viability ([1]; first compound 0.2 µM) was 0.203, the relative viability ([1]; first compound 0.6325 µM) was 0.279 and the relative viability ([1]; first compound 2 µM) was 0.258. For the same cell line, the relative viability (Entinostat + Vorinostat; first compound 0.02 µM) was 0.237, the relative viability (Entinostat + Vorinostat; first compound 0.06325 µM) was 0.293 and the relative viability (Entinostat + Vorinostat; first compound 0.2 µM) was 0.279. The relative viability (Entinostat + Vorinostat; first compound 0.6325 µM) was 0.188 and the relative viability (Entinostat + Vorinostat; first compound 2 µM) was 0.154.
